Assay results as given in US9266835B2, “Quinoline derivatives useful as CB-1 inverse agonists” (JANSSEN PHARMACEUTICA NV, priority 2014, dated 2016).

How the values were obtained:
[1] = molecular target: Human CB2R (Cannabinoid receptor 2) (Homo sapiens (Human), UniProt P34972); experiment: CB-2 in vitro cAMP assay (HTRF), inverse agonism; format: cell-based; conditions: mean where tested more than once
[2] = molecular target: Human CB1R (Cannabinoid receptor 1) (Homo sapiens (Human), UniProt P21554); experiment: CB-1 in vitro cAMP assay (HTRF), inverse agonism; format: cell-based; conditions: mean where tested more than once
Chain of Human CB1R (Cannabinoid receptor 1) (P21554 whole entry): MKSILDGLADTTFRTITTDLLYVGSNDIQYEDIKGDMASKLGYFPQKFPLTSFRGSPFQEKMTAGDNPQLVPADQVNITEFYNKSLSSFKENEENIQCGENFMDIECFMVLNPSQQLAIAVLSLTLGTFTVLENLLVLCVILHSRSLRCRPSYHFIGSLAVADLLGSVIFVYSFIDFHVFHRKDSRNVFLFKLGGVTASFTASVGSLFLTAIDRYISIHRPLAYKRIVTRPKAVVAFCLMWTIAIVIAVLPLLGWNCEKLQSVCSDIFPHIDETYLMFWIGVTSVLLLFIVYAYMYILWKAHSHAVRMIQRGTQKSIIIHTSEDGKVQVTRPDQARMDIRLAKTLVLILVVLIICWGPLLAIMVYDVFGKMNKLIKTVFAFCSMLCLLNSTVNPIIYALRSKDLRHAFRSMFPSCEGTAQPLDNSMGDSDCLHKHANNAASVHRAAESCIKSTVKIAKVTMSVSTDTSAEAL

Chain of Human CB2R (Cannabinoid receptor 2) (P34972 whole entry): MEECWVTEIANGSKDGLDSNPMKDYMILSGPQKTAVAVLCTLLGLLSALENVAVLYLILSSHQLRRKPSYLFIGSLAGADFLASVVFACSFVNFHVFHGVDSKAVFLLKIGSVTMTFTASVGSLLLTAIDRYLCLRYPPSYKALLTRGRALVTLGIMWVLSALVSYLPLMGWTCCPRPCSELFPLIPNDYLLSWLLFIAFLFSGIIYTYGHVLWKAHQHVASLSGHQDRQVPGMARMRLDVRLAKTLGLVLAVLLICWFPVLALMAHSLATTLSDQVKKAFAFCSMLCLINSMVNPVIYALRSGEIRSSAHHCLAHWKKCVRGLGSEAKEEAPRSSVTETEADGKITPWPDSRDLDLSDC

Row | Compound | EC50 [1] | EC50 [2]
1 | O=C(O)CCN1CCC(Nc2cc(=O)[nH]c3ccc(C(c4ccc(Cl)cc4)c4ccc(Cl)cc4)cc23)CC1 [Compound 115, 3-[4-({6-[Bis(4-chlorophenyl)methyl]-2-oxo-1,2-dihydroquinolin-4-yl}amino)piperidin-1-yl]propanoic acid] | > 10000 nM | > 10000 nM
2 | CC(C)(C)OC(=O)NCCCCOc1cc(C(c2ccc(Cl)cc2)c2ccc(Cl)cc2)cc2c(NC3CCN(S(=O)(=O)C(F)(F)F)CC3)ccnc12 [Compound 539, tert-butyl (4-((6-(bis(4-chlorophenyl)methyl)-4-((1-((trifluoromethyl)sulfonyl)piperidin-4-yl)amino)quinolin-8-yl)oxy)butyl)carbamate] | > 21000 nM | 96 nM
3 | NC(=O)c1ccc(Nc2cc(=O)[nH]c3ccc(C(c4ccc(Cl)cc4)c4ccc(Cl)cc4)cc23)cc1 [Compound 87, 4-({6-[Bis(4-chlorophenyl)methyl]-2-oxo-1,2-dihydroquinolin-4-yl}amino)benzamide] | > 10000 nM | 3150 nM
4 | O=c1cc(NC2CCN(S(=O)(=O)C3CC3)CC2)c2cc(C(c3ccc(Cl)cc3)c3ccc(Cl)cc3)ccc2[nH]1 [Compound 67, 6-[Bis(4-chlorophenyl)methyl]-4-{[1-(cyclopropylsulfonyl)piperidin-4-yl]amino}quinolin-2(1H)-one] | > 10000 nM | 15 nM
5 | O=c1cc(NC2CCN(S(=O)(=O)c3ccccc3)CC2)c2cc(C(c3ccc(Cl)cc3)c3ccc(Cl)cc3)ccc2[nH]1 [Compound 80, 6-[Bis(4-chlorophenyl)methyl]-4-{[1-(phenylsulfonyl)piperidin-4-yl]amino}quinolin-2(1H)-one] | > 10000 nM | 14 nM
6 | CC(C)(C)OC(=O)N1CC=C(c2ccnc3ccc(C(c4ccc(Cl)cc4)c4nccs4)cc23)CC1 (stereo not drawn) [Compound 513, tert-butyl 4-(6-((4-chlorophenyl)(thiazol-2-yl)methyl)quinolin-4-yl)-5,6-dihydropyridine-1(2H)-carboxylate] | > 10000 nM | 1500 nM
7 | Clc1ccc(C(c2ccc3nccc(/C=C/c4ccccc4)c3c2)c2nccs2)cc1 (stereo not drawn) [Compound 511, (E)-2((4-chlorophenyl)(4-styrylquinolin-6-yl)methyl)thiazole] | > 10000 nM | 136 nM
8 | O=c1cc(/C=C\c2ccc(C(F)(F)F)cc2)c2cc(C(c3ccc(Cl)cc3)c3cccs3)ccc2[nH]1 (stereo not drawn) [Compound 18, 6-[(4-Chlorophenyl)(thiophen-2-yl)methyl]-4-{(Z)-2-[4-(trifluoromethyl)phenyl]-ethenyl}quinolin-2(1H)-one] | > 10000 nM | 875 nM
9 | FC(F)(F)c1ccc(/C=C/c2ccnc3ccc(C(c4ccc(Cl)cc4)c4ccc(Cl)cc4)cc23)cc1 [Compound 521, 6-[Bis(4-chlorophenyl)methyl]-4-{(E)-2-[4-(trifluoromethyl)phenyl]-ethenyl}quinoline] | > 10000 nM | 213 nM
10 | NC(=O)Cn1c(=O)cc(NC2CCN(S(=O)(=O)C(F)(F)F)CC2)c2cc(C(c3ccc(Cl)cc3)c3ccc(Cl)cc3)ccc21 [Compound 90, 2-(6-(bis(4-chlorophenyl)methyl)-2-oxo-4-((1-((trifluoromethyl)sulfonyl)piperidin-4-yl)amino)quinolin-1(2H)-yl)acetamide] | > 10000 nM | 967 nM
11 | Clc1ccc(C(c2ccc3nccc(/C=C/c4ccccc4)c3c2)c2cscn2)cc1 (stereo not drawn) [Compound 520, 6-[(4-Chlorophenyl)(1,3-thiazol-4-yl)methyl]-4-[(E)-2-phenylethenyl]quinoline] | > 10000 nM | 169 nM
12 | Cn1c(=O)cc(NC2CCN(S(=O)(=O)C(F)(F)F)CC2)c2cc(C(c3ccc(Cl)cc3)c3ccc(Cl)cc3)ccc21 [Compound #49, 6-[bis(4-chlorophenyl)methyl]-1-methyl-4-[[1-(trifluoromethane)sulfonylpiperidin-4-yl]amino]-1,2-dihydroquinolin-2-one] | > 10000 nM | 24 nM
13 | O=C(O)COc1ccc(Nc2cc(=O)[nH]c3ccc(C(c4ccc(Cl)cc4)c4ccc(Cl)cc4)cc23)cc1 [Compound 109, 2-(4-((6-(bis(4-chlorophenyl)methyl)-2-oxo-1,2-dihydroquinolin-4-yl)amino)phenoxy)acetic acid] | > 10000 nM | 5120 nM
14 | NC(=O)CCC(=O)N1CCC(Nc2cc(=O)[nH]c3ccc(C(c4ccc(Cl)cc4)c4ccc(Cl)cc4)cc23)CC1 [Compound 112, 4-[4-({6-[Bis(4-chlorophenyl)methyl]-2-oxo-1,2-dihydroquinolin-4-yl}amino)piperidin-1-yl]-4-oxobutanamide] | > 10000 nM | 302 nM
15 | CC(C)(C)OC(=O)COc1ccc(Nc2cc(=O)[nH]c3ccc(C(c4ccc(Cl)cc4)c4ccc(Cl)cc4)cc23)cc1 [Compound 105, tert-butyl 2-(4-((6-(bis(4-chlorophenyl)methyl)-2-oxo-1,2-dihydroquinolin-4-yl)amino)phenoxy)acetate] | > 10000 nM | 95 nM
16 | CC(C)(C)OC(=O)/N=C(/NC(=O)OC(C)(C)C)N1CCC(Nc2cc(=O)[nH]c3ccc(C(c4ccc(Cl)cc4)c4ccc(Cl)cc4)cc23)CC1 [Compound 119, (Z)-tert-butyl ((4-((6-(bis(4-chlorophenyl)methyl)-2-oxo-1,2-dihydroquinolin-4-yl)amino)piperidin-1-yl)((tert-butoxycarbonyl)imino)methyl)carbamate] | > 10000 nM | 128 nM

The next lines start with the values.

Row | EC50 [1] | EC50 [2] | Compound
17 | 3650 nM | 13 nM | CCOC(=O)CC(=O)N1CCC(Nc2cc(=O)[nH]c3ccc(C(c4ccc(Cl)cc4)c4ccc(Cl)cc4)cc23)CC1 [Compound 95, Ethyl 3-[4-({6-[bis(4-chlorophenyl)methyl]-2-oxo-1,2-dihydroquinolin-4-yl}amino)piperidin-1-yl]-3-oxopropanoate]
18 | > 10000 nM | 375 nM | Clc1ccc(C(c2ccc3nccc(/C=C/c4ccccc4)c3c2)c2cccs2)cc1 (stereo not drawn) [Compound 508, 6-[(4-Chlorophenyl)(thiophen-2-yl)methyl]-4-[(E)-2-phenylethenyl]quinoline]
19 | > 10000 nM | 122 nM | O=c1cc(NC2CCN(S(=O)(=O)C(F)(F)F)CC2)c2cc(C(Oc3ccc(Cl)cc3)c3ccc(Cl)cc3)ccc2[nH]1 (stereo not drawn) [Compound #136, 6-[4-chlorophenoxy(4-chlorophenyl)methyl]-4-[[1-(trifluoromethane)sulfonylpiperidin-4-yl]amino]-1,2-dihydroquinolin-2-one]
20 | > 10000 nM | 11 nM | O=c1cc(Nc2ccc(Cl)c(F)c2)c2cc(C(c3ccc(Cl)cc3)c3ccc(Cl)cc3)ccc2[nH]1 [Compound 83, 6-[Bis(4-chlorophenyl)methyl]-4-[(4-chloro-3-fluorophenyl)amino]quinolin-2(1H)-one]
21 | 6600 nM | 11 nM | O=c1cc(NC2CCN(S(=O)(=O)C(F)(F)F)CC2)c2cc(C(c3ccc(Cl)cc3)c3ccc(Cl)nc3)ccc2[nH]1 (stereo not drawn) [Compound #72, 6-[(4-chlorophenyl)(6-chloropyridin-3-yl)methyl]-4-[[1-(trifluoromethane)sulfonylpiperidin-4-yl]amino]-1,2-dihydroquinolin-2-one]
22 | > 10000 nM | 38 nM | CNC(=O)COc1cc(NC2CCN(S(=O)(=O)C(F)(F)F)CC2)c2cc(C(c3ccc(Cl)cc3)c3ccc(Cl)cc3)ccc2n1 [Compound 533, 2-({6-[Bis(4-chlorophenyl)methyl]-4-({1-[(trifluoromethyl)sulfonyl]-piperidin-4-yl}amino)quinolin-2-yl}oxy)-N-methylacetamide]
23 | > 10000 nM | 426 nM | COc1ccc(C(c2ccc(Cl)cc2)c2ccc3[nH]c(=O)cc(/C=C/c4ccccc4)c3c2)cc1 (stereo not drawn) [Compound 514, (E)-6-((4-chlorophenyl)(4-methoxyphenyl)methyl)-4-styrylquinolin-2(1H)-one]
24 | 6700 nM | 300 nM | Cc1ccc(Nc2cc(=O)[nH]c3ccc(C(c4ccc(Cl)cc4)c4ccc(Cl)cc4)cc23)cn1 [Compound 134, 6-[Bis(4-chlorophenyl)methyl]-4-[(6-methylpyridin-3-yl)amino]quinolin-2(1H)-one]
25 | 750 nM | 227 nM | O=C(c1ccc(Nc2cc(=O)[nH]c3ccc(C(c4ccc(Cl)cc4)c4ccc(Cl)cc4)cc23)cc1F)N1CCCC1 [Compound 138]
26 | 670 nM | 52 nM | O=C1CCCN1c1cc(C(c2ccc(Cl)cc2)c2ccc(Cl)cc2)cc2c(NC3CCN(S(=O)(=O)C(F)(F)F)CC3)cc(=O)[nH]c12 [Compound 107, 6-(bis(4-chlorophenyl)methyl)-8-(2-oxopyrrolidin-1-yl)-4-((1-((trifluoromethyl)sulfonyl)piperidin-4-yl)amino)quinolin-2(1H)-one]
27 | 1810 nM | 7 nM | O=c1cc(NCc2cccc(C(F)(F)F)c2)c2cc(C(c3ccc(Cl)cc3)c3ccc(Cl)cc3)ccc2[nH]1 [Compound #61, 6-(bis(4-chlorophenyl)methyl)-4-((3-(trifluoromethyl)benzyl)amino)quinolin-2(1H)-one]
28 | 60 nM | 92 nM | O=C(O)CCCCCOc1cc(NC2CCN(S(=O)(=O)C(F)(F)F)CC2)c2cc(C(c3ccc(Cl)cc3)c3ccc(Cl)cc3)ccc2n1 [Compound 535, 6-({6-[Bis(4-chlorophenyl)methyl]-4-({1-[(trifluoromethyl)sulfonyl]-piperidin-4-yl}amino)quinolin-2-yl}oxy)hexanoic acid]
29 | 660 nM | 702 nM | O=c1cc(/C=C/c2cccc(F)c2)c2cc(C(c3ccc(Cl)cc3)c3ccc(Cl)cc3)ccc2[nH]1 [Compound 15, 6-[Bis(4-chlorophenyl)methyl]-4-[(E)-2-(3-fluorophenyl)ethenyl]quinolin-2(1H)-one]
30 | 3230 nM | 29 nM | O=c1cc(NC2CCN(S(=O)(=O)C(F)(F)F)CC2)c2cc(C(c3ccc(Cl)cc3)c3ccc(C(F)(F)F)cc3)ccc2[nH]1 (stereo not drawn) [Compound 62, 6-{(4-Chlorophenyl)[4-(trifluoromethyl)phenyl]methyl}-4-({1-[(trifluoromethyl)sulfonyl]-piperidin-4-yl}amino)quinolin-2(1H)-one]
